Measurements published in patent US6469008B2, “(R)-hydroxynefazodone antipsychotic therapy” (Sepracor Inc., priority 1999, dated 2002).

Experiments:
Human D2 receptor = biological target: T1, Human D2 receptor (Homo sapiens, UniProt P14416); test: Dopamine D2 receptor binding; settings: [3H]spiperone, transfected A9L cell membranes
T1 construct: expressed in transfected cells; host or cells: A9L cells
Experimental: (§1) Dopamine and serotonin receptor binding assays were performed in a standard manner with the incubation of membrane preparations in an assay buffer in the presence of a known radioactively labeled specific ligand for the receptor subtypes. Nonspecific binding was determined by assessing binding in the presence of excess ligand. Specific binding was measured as the total labeled ligand bound after the nonspecific binding was subtracted. The effect of the tested agents was measured by determining the competition for the receptor binding across a concentration range. Subsequently, an IC50 was determined for the agents tested. More specific details are provided below for several of the assays performed.
(§2) Aliquots of transfected A9L cell membrane preparations corresponding to 20-40 μg protein are incubated for 60 min at 22° C. in 250 μl of 50 mM Tris-HCl buffer (pH 7.4) containing 120 mM NaCl, 5 mM KCl, 5 mM MgCl2, 1 mM EDTA, 0.3 nM [^3H]spiperone and increasing concentrations of the competing drugs. Nonspecific binding is determined in the presence of 10 μM (+)butaclamol. After incubation, the samples are filtered rapidly under vacuum through glass fiber filters (GF/B, Packard) and rinsed several times with ice-cold 50 mM Tris-HCl using a cell harvester (Packard). Bound radioactivity is measured with a scintillation counter (Topcount, Packard) using a liquid scintillation cocktail (Microscint 0, Packard). The reference compound for this assay is (+)butaclamol.

5-HT1B = biological target: T2, 5-HT1B (Homo sapiens, UniProt P28222); test: 5-HT1B receptor binding; settings: read-out: Serotonin Receptor Binding 5-HT1B (IC50)
T2 construct: host or cells: membrane preparations
Experimental: as §1

5-HT1D = biological target: T3, 5-HT1D (Homo sapiens, UniProt P28221); test: 5-HT1D receptor binding; settings: read-out: Serotonin Receptor Binding 5-HT1D (IC50)
T3 construct: host or cells: membrane preparations
Experimental: as §1

5-HT5A = biological target: T4, 5-HT5A (Homo sapiens, UniProt P47898); test: 5-HT5A receptor binding; settings: read-out: Serotonin Receptor Binding 5-HT5A (IC50)
T4 construct: host or cells: membrane preparations
Experimental: as §1

α1 Receptor = test: α1 receptor binding; settings: read-out: α1 Receptor Binding Alpha1 (IC50)
[1] = cited from earlier work
[2] = system: alpha2 adrenergic receptors; settings: in vitro binding studies; cited from earlier work
[3] = system: beta adrenergic receptors; settings: in vitro binding studies; cited from earlier work
5-HT1A receptors [4] = biological target: T5, 5-HT1A receptors (Homo sapiens, UniProt P08908); settings: in vitro binding studies; cited from earlier work
T5 sequence (P08908 1-422): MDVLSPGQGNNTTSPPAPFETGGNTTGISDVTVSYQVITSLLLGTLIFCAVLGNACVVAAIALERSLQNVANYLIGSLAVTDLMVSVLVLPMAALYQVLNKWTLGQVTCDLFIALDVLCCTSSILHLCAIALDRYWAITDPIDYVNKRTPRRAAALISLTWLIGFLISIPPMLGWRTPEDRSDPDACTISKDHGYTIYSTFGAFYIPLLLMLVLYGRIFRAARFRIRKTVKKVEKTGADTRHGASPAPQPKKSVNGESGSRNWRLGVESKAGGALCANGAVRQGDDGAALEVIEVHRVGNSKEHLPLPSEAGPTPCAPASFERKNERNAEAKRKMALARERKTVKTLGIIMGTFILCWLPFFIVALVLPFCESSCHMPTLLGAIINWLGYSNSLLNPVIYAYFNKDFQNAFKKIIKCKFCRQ

cholinergic receptors = settings: in vitro binding studies; cited from earlier work
dopaminergic receptors = settings: in vitro binding studies; cited from earlier work
benzodiazepine receptors = settings: in vitro binding studies; cited from earlier work
[5] = system: alpha1-adrenergic receptors; settings: cited from earlier work
5-HT1A receptors [6] = biological target: T5, 5-HT1A receptors; test: 5-HT1A receptor binding; set-up: expressed in transfected cells; host or cells: CHO cells; settings: [3H]8-OH-DPAT, transfected CHO cell membranes; read-out: Serotonin Receptor Binding 5-HT1A (IC50)
Experimental: as §1
as §2, with “CHO” for “A9L”, “7-15” for “20-40”, “10” for “120”, “MgSO4, 0.5” for “NaCl, 5 mM KCl, 5 mM MgCl2, 1”, “[^3H]8-OH-DPAT” for “[^3H]spiperone”, “8-OH-DPAT.” for “(+)butaclamol.”

T1 sequence (P14416 whole entry): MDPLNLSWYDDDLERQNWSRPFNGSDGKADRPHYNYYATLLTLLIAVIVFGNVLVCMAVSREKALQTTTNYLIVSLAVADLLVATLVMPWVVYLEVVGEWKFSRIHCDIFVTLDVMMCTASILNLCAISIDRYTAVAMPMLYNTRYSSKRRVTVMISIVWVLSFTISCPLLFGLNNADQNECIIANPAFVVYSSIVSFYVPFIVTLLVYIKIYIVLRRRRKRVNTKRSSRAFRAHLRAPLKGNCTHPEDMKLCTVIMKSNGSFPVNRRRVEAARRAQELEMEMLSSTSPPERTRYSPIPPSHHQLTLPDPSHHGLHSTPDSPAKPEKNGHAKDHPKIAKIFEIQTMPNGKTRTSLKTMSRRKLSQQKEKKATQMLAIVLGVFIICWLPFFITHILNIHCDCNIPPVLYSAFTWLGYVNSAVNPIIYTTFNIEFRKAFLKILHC
T3 sequence (P28221 whole entry, species assumed): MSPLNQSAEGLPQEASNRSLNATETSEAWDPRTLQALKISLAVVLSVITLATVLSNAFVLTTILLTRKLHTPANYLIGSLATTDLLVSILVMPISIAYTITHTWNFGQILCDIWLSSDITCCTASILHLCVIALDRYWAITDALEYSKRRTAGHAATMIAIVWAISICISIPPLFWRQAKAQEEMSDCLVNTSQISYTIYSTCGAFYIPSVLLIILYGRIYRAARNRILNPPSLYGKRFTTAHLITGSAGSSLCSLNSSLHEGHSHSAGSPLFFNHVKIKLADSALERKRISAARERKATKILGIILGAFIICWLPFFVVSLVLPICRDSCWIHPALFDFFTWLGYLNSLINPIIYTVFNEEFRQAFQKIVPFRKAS
T2 sequence (P28222 whole entry, species assumed): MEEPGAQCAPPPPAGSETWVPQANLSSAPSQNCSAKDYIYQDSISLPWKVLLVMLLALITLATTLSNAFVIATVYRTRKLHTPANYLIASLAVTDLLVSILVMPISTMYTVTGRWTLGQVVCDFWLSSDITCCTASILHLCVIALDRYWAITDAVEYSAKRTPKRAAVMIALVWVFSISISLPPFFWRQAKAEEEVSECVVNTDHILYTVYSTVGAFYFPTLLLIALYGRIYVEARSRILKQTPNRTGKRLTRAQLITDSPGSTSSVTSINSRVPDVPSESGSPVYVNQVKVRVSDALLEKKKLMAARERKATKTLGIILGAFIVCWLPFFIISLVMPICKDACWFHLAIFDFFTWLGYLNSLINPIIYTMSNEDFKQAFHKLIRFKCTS
T4 sequence (P47898 whole entry, species assumed): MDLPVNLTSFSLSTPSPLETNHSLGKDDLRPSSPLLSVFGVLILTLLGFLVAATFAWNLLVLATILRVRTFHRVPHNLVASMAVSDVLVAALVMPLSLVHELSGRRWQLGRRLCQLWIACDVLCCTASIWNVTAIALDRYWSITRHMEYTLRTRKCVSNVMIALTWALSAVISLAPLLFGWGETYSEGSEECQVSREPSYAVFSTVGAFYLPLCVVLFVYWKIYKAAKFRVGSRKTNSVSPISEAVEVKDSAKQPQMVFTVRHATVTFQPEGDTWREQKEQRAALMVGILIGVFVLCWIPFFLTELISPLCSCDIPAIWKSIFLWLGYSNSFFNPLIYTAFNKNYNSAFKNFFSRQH

CCc1nn(CCCN2CCN(c3cccc(Cl)c3)CC2)c(=O)n1CCOc1ccccc1 [Nefazodone]
IC50 (Human D2 receptor): 716 nM
IC50 (5-HT1B): 1870 nM
IC50 (5-HT1D): 925 nM
IC50 (5-HT5A): 1560 nM
IC50 (α1 Receptor): 306 nM
kinetics for dose and time (AUC and Cmax) ([1]; AUC and Cmax increasing more than proportionally with dose and upon multiple dosing): nonlinear kinetics
half-life ([1]; in vivo): 2 to 4 h
time of peak plasma concentrations ([1]; in vivo): about one
absolute bioavailability ([1]; low and variable because of extensive metabolism): about 20%
affinity for alpha2 adrenergic receptors [2]: no significant affinity
affinity for beta adrenergic receptors [3]: no significant affinity
affinity for 5-HT1A receptors (5-HT1A receptors [4]): no significant affinity
affinity for cholinergic receptors (cholinergic receptors): no significant affinity
affinity for dopaminergic receptors (dopaminergic receptors): no significant affinity
affinity for benzodiazepine receptors (benzodiazepine receptors): no significant affinity
action on alpha1-adrenergic receptors [5]: antagonize
IC50 (5-HT1A receptors [6]): 625 nM
